Measurements published in US20250171404A1, “PCNA INHIBITORS AND USES THEREOF” (CITY OF HOPE, priority 2022, published 2025).

How the values were obtained:
[1] = test system: SK-N-AS derived xenograft tumors; assay: Survival of mice bearing xenograft tumors, AOH1996 with CPT-11; format: in vivo, ES1^e/SCID mice; conditions: AOH1996 80 mg/kg oral 8 d; CPT-11 15 mg/kg i.p. 3 d; vs untreated
Protocol: FIGS. 4A-4H. Pharmacokinetics and anti-tumor growth activity of AOH1996 in vivo. FIG. 4A: After oral administration, the plasma concentrations of AOH1996 from three male and three female ES1^e/SCID mice at the indicated time points were averaged and graphed ±S.D. The inset contains PK parameters determined by a standard noncompartmental method. FIG. 4B: A similar PK study of AOH1996 was performed in dogs. FIGS. 4C-4E: Mice bearing the xenograft tumors of neuroblastoma (FIG. 4C: SK-N-BE(2)c), breast cancer (FIG. 4D: MDA-MB-468), and small-cell lung cancer (FIG. 4E: H82) were given vehicle only (black) or 40 mg/kg of AOH1996 (grey) twice daily immediately after the first measurement. Tumor sizes were measured by a dial caliper each week. Tumor volumes (0.4×L×W^2) were averaged and graphed ±S.E. (*, P<0.01). FIG. 4F: Animal body weight was monitored throughout the studies as an indicator of toxicity. […] FIG. 4G: The levels of phosphor-Chk1 (pChk1) and γH2A.X in SK-N-BE(2)c derived tumor samples were analyzed by IHC. […] The p values determined by the Log-rank (Mantel-Cox) test between combination treatment and each of the control groups are p=0.0003 (Combination vs. NoRx), p=0.005 (Combination vs. AOH1996 alone), and p=0.024 (Combination vs. CPT-11 alone). […]
In vivo tumor model. […] Tumor size and animal weight were measured weekly. […]

[2] = target: T1, PCNA interaction with RPB1 (Homo sapiens, UniProt P12004); assay: PCNA interaction with RPB1 (immunoprecipitation, western blotting); format: cell-based; conditions: SK-N-AS
T1 construct: expressed in transfected cells; host or cells: SK-N-AS (FLAG-RPB1 exogenous; PCNA endogenous)
Protocol: FIGS. 5A-5E. Modulation of PCNA interaction with RNA polymerase II. FIG. 5A: Chromatin-bound (CB) proteins were fractioned from HEK293T cells expressing FLAG-tagged PCNA after the cells were treated with or without 500 nM AOH1996. Proteins in complex with FLAG-PCNA were immune-precipitated and analyzed by mass spectrometry. Shown are numbers of proteins whose abundances were altered (grey) or unaltered (black) by more than 2-fold by AOH1996 treatment. FIG. 5B: SK-N-AS cells exogenously expressing a FLAG-tagged RPB1 gene were fractioned before and after being treated with 500 nM AOH1996 overnight. PCNA in complex with chromatin-bound (CB) FLAG-RBP1 were analyzed by western blotting. FIG. 5C: Human SK-N-AS cells were treated with UV in the presence or absence of AOH1996 (AOH) or R9-caPep (caPep). Whole cell extracts were analyzed by western blotting. FIG. 5D: Cells exogenously expressing FLAG-tagged wildtype RPB1 or FLAG-tagged APIM-mutant RPB1 gene were fractioned. PCNA in complex with chromatin-bound (CB) FLAG-RBP1 were analyzed by western blotting. FIG. 5E: HEK293T cells were transiently transfected with a FLAG-tagged wildtype RPB1 (APIM WT) gene or mutant RPB1 gene (APIM mutant). The intracellular MCM7 and RBP1 (both the hypo-phosphorylated RNAPIIa and hyper-phosphorylated RNAPIIo forms) were analyzed by western blot after cells were treated by the indicated agents and/or UV.
Modulating PCNA interaction with transcription machinery.
Cell fractionation and immunoprecipitation. Cells were fractionated as previously described (Li et al., 2018). Briefly, intact nuclei isolated following osmotic lysis were homogenized using a 21 G needle. Chromatin was pelleted by centrifugation and incubated overnight at 4° C. with benzonase in two volumes of nuclease buffer (20 mM HEPES pH 7.5, 1.5 mM MgCl2, 1 mM EDTA, 150 mM KCl, 10% glycerol, 0.5 U μl-1 benzonase). The resulting supernatant was collected as the CB fraction. Alternatively, we sequentially incubated the chromatin pellet with RNase A and benzonase and collected the supernatants after each digestion as the CB:RNA+ and CB:RNA− fractions, respectively (Li et al., 2018).

SMILES: COc1cccc(Oc2ccccc2NC(=O)CNC(=O)c2cccc3ccccc23)c1 [AOH1996, N-(2-((2-(3-methoxyphenoxy)phenyl)amino)-2-oxoethyl)-1-naphthamide]
- increase of median survival [1]: ~11.5%
- PCNA interaction with RPB1 ([2]; chromatin-bound): enhanced interaction between PCNA and RPB1
- RPB1 levels ([2]; whole cell extracts): depleted RPB1 in cancer cells
